From patent publication US12459951B2, “Compounds that interact with RAS superfamily proteins for treatment of cancers, inflammatory diseases, rasopathies, and fibrotic disease” (SHY Therapeutics, LLC, priority 2022, dated 2025) come the findings set out here.

The test system of one test is TNF-alpha. The test is described as follows: TNF-alpha Quantification Assay (ELISA), LPS-stimulated RAW 264.7. In kind it is cell-based. The settings on record: Mus musculus, RAW264.7; at 10 μM; read-out: TNFα: % inh.
A further test concerns Akt phosphorylation. In words: Akt Phosphorylation Assay (western blot), Panc-1. The class given is cell-based, human. The settings on record: at 10 μM, * = activation. The method in brief:
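Panc-1 (KRas G12D) cells were treated with compound at 10 μM final (0.3% DMSO) for 6 h at 37 °C, or with serial dilutions for IC50. Cells were either serum-starved overnight in 0.5% FBS and then stimulated with 1.5 ng/ml EGF for 15 min, or kept in 10% FBS without stimulation. Akt Ser473 phosphorylation in lysates was read by western blot.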
For orientation: A western blot detects proteins with antibodies after separation by electrophoresis.

A further test relates to Erk1/2 phosphorylation. In words: Erk1/2 Phosphorylation Assay (western blot), Panc-1. In kind it is cell-based, human. The settings on record: at 10 μM, * = activation. The method in brief:
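KRas G12D Panc-1 cells were treated 6 h at 37° C with compound at 10 μM or serial dilutions for IC50 (0.3% DMSO). In method 1, cells were serum-starved overnight (0.5% FBS) and then given 1.5 ng/ml EGF for 15 min. In method 2, cells stayed in 10% FBS without stimulation. Lysate phospho-Erk1/2 (Thr202/Tyr204) was read by western blot.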

Consider `COc1ccc(Nc2nc(-c3nccn3C)nn3cc(-c4ccn(C)n4)c(C)c23)nc1` [Compound 224, N-(5-Methoxypyridin-2-yl)-5-methyl-2-(1-methyl-1H-imidazol-2-yl)-6-(1-methyl-1H-pyrazol-3-yl)pyrrolo[2,1-f][1,2,4]triazin-4-amine], for which the inhibition at 10 µM in the test with TNF-alpha was in the range of 1 to 24%. Besides, the “% inh of Akt phosphorylation in Panc-1” value in the test on Akt phosphorylation is recorded as “D* (85-100% activation)”. In addition, the “% inh of Erk1/2 phosphorylation in Panc-1” value with Erk1/2 phosphorylation is given as “C* (46-84% activation)”.

In the case of `CO[C@H]1CC[C@H](Nc2nc(-c3nccn3C)nn3cc(-c4ccn(C)n4)c(C(=O)NCC(F)(F)F)c23)C1` (racemic) [Compound 181, 4-(((1S,3S)-3-Methoxycyclopentyl)amino)-2-(1-methyl-1H-imidazol-2-yl)-6-(1-methyl-1H-pyrazol-3-yl)-N-(2,2,2-trifluoroethyl)pyrrolo[2,1-f][1,2,4]triazine-5-carboxamide], the inhibition at 10 µM in the test on TNF-alpha fell in the range of 1 to 24%. In addition, in the test on Akt phosphorylation, the “% inh of Akt phosphorylation in Panc-1” value was “B* (26-49% activation)”. Also, the “% inh of Erk1/2 phosphorylation in Panc-1” value in the test on Erk1/2 phosphorylation is “A (1-25% inhibition)”.

`COCCNc1nc(-c2nccn2C)nn2cc(-c3cccc(OC)c3Cl)c(C)c12` [Compound 16, 6-(2-Chloro-3-methoxyphenyl)-N-(2-methoxyethyl)-5-methyl-2-(1-methyl-1H-imidazol-2-yl)pyrrolo[2,1-f][1,2,4]triazin-4-amine]: the inhibition at 10 µM in the test on TNF-alpha is 0%. Further, the “% inh of Akt phosphorylation in Panc-1” value in the test with Akt phosphorylation is 0 (0% inhibition). For the same compound, the “% inh of Erk1/2 phosphorylation in Panc-1” value in the test on Erk1/2 phosphorylation is listed as “A (1-25% inhibition)”.

`CO[C@@H]1C[C@H]1Nc1nc(-c2nccn2C)nn2cc(-c3ccncc3)c(-c3ccccc3)c12` (racemic) [Compound 197, rac N-((1R,2R)-2-methoxycyclopropyl)-2-(1-methyl-1H-imidazol-2-yl)-5-phenyl-6-(pyridin-4-yl)pyrrolo[2,1-f][1,2,4]triazin-4-amine]: the inhibition at 10 µM in the test on TNF-alpha is 25 to 49%. Further, the “% inh of Akt phosphorylation in Panc-1” value in the test with Akt phosphorylation is on record as “A* (1-25% activation)”. Also, the “% inh of Erk1/2 phosphorylation in Panc-1” value in the test with Erk1/2 phosphorylation is “D* (85-100% activation)”.

`COc1ccnc(Nc2nc(-c3nccn3CCN)nn3cc(-c4ccn(C)n4)c(C)c23)c1` [Compound 188, 2-(1-(2-Aminoethyl)-1H-imidazol-2-yl)-N-(4-methoxypyridin-2-yl)-5-methyl-6-(1-methyl-1H-pyrazol-3-yl)pyrrolo[2,1-f][1,2,4]triazin-4-amine]: the inhibition at 10 µM with TNF-alpha was found to be 0%. Besides, the “% inh of Akt phosphorylation in Panc-1” value in the test with Akt phosphorylation is recorded as “A* (1-25% activation)”. Also, the “% inh of Erk1/2 phosphorylation in Panc-1” value with Erk1/2 phosphorylation is recorded as “A (1-25% inhibition)”.

With `COc1ccnc(Nc2nc(-c3nccn3C)nn3cc(-c4ccn(C)n4)c(C(=O)NCC(F)(F)F)c23)c1` [Compound 174, 4-((4-Methoxypyridin-2-yl)amino)-2-(1-methyl-1H-imidazol-2-yl)-6-(1-methyl-1H-pyrazol-3-yl)-N-(2,2,2-trifluoro-ethyl)pyrrolo[2,1-f][1,2,4]triazine-5-carboxamide], in the test with TNF-alpha, the inhibition at 10 µM stood at 0%. In addition, the “% inh of Akt phosphorylation in Panc-1” value in the test on Akt phosphorylation was “D* (85-100% activation)”. The “% inh of Erk1/2 phosphorylation in Panc-1” value in the test with Erk1/2 phosphorylation was “D* (85-100% activation)”.

On to `COc1ccnc(Nc2nc(-c3nccn3C)nn3cc(-c4c(F)cccc4OC)c(-c4ccccc4)c23)c1` [Compound 217, 6-(2-Fluoro-6-methoxyphenyl)-N-(4-methoxypyridin-2-yl)-2-(1-methyl-1H-imidazol-2-yl)-5-phenylpyrrolo[2,1-f][1,2,4]triazin-4-amine], for which the inhibition at 10 µM in the test with TNF-alpha was 25 to 49%. Besides, in the test with Akt phosphorylation, the “% inh of Akt phosphorylation in Panc-1” value was “D* (85-100% activation)”. The “% inh of Erk1/2 phosphorylation in Panc-1” value in the test on Erk1/2 phosphorylation is “D* (85-100% activation)”.

For `COc1cnc(Nc2nc(-c3nccn3C)nn3cc(-c4ccn(C)n4)c(C)c23)cc1C` [Compound 236, N-(5-Methoxy-4-methylpyridin-2-yl)-5-methyl-2-(1-methyl-1H-imidazol-2-yl)-6-(1-methyl-1H-pyrazol-3-yl)pyrrolo[2,1-f][1,2,4]triazin-4-amine], the inhibition at 10 µM in the test on TNF-alpha was found to be 0%. Besides, the “% inh of Akt phosphorylation in Panc-1” value in the test on Akt phosphorylation is on record as “B* (26-49% activation)”. The “% inh of Erk1/2 phosphorylation in Panc-1” value in the test with Erk1/2 phosphorylation is “D* (85-100% activation)”.

In the case of `COc1ccnc(Nc2nc(-c3nccn3C)nn3cc(-c4ccn(C)n4)c(C(=O)NCCN(C)C)c23)c1` [Compound 177, N-(2-(Dimethylamino)ethyl)-4-((4-methoxypyridin-2-yl)amino)-2-(1-methyl-1H-imidazol-2-yl)-6-(1-methyl-1H-pyrazol-3-yl)pyrrolo[2,1-f][1,2,4]triazine-5-carboxamide], the inhibition at 10 µM with TNF-alpha was determined as 0%. Besides, the “% inh of Akt phosphorylation in Panc-1” value with Akt phosphorylation was “A* (1-25% activation)”. Also, the “% inh of Erk1/2 phosphorylation in Panc-1” value in the test with Erk1/2 phosphorylation is on record as “D* (85-100% activation)”.

`COc1ccnc(Nc2nc(-c3nccn3CCNC(=O)CCCC[C@H]3SC[C@H]4NC(=O)N[C@H]43)nn3cc(-c4ccn(C)n4)c(C)c23)c1` [Compound 216, N-(2-(2-(4-((4-methoxypyridin-2-yl)amino)-5-methyl-6-(1-methyl-1H-pyrazol-3-yl)pyrrolo[2,1-f][1,2,4]triazin-2-yl)-1H-imidazol-1-yl)ethyl)-5-((3aR,4R,6aS)-2-oxohexahydro-1H-thieno[3,4-d]imidazol-4-yl)pentanamide]: the inhibition at 10 µM in the test with TNF-alpha was 25 to 49%. In the test on Akt phosphorylation, the “% inh of Akt phosphorylation in Panc-1” value is “A* (1-25% activation)”. Moreover, the “% inh of Erk1/2 phosphorylation in Panc-1” value in the test with Erk1/2 phosphorylation was “C* (46-84% activation)”.

Regarding `Cc1c(-c2ccn(C)n2)cn2nc(-c3nccn3C)nc(Nc3ccc(C(F)(F)F)cn3)c12` [Compound 233, 5-Methyl-2-(1-methyl-1H-imidazol-2-yl)-6-(1-methyl-1H-pyrazol-3-yl)-N-(5-(trifluoromethyl)pyridin-2-yl)pyrrolo[2,1-f][1,2,4]triazin-4-amine], in the test on TNF-alpha, the inhibition at 10 µM was in the range of 1 to 24%. The “% inh of Akt phosphorylation in Panc-1” value in the test with Akt phosphorylation is on record as “D* (85-100% activation)”. In the test with Erk1/2 phosphorylation, the “% inh of Erk1/2 phosphorylation in Panc-1” value is reported as “D* (85-100% activation)”.

`Cc1c(-c2ccn(C)n2)cn2nc(-c3nccn3C)nc(Nc3cc4c(cn3)CCO4)c12` [Compound 221, N-(5-Methyl-2-(1-methyl-1H-imidazol-2-yl)-6-(1-methyl-1H-pyrazol-3-yl)pyrrolo[2,1-f][1,2,4]triazin-4-yl)-2,3-dihydrofuro[3,2-c]pyridin-6-amine]: the inhibition at 10 µM in the test on TNF-alpha is 0%. Also, the “% inh of Akt phosphorylation in Panc-1” value in the test on Akt phosphorylation is given as “D* (85-100% activation)”. Moreover, in the test on Erk1/2 phosphorylation, the “% inh of Erk1/2 phosphorylation in Panc-1” value is on record as “A* (1-25% activation)”.

`CO[C@H]1CC[C@H](Nc2nc(-c3nccn3C)nn3cc(-c4ccn(C)n4)c(C(=O)NCCN4CCOCC4)c23)C1` (racemic) [Compound 185, rac 4-(((1S,3S)-3-methoxycyclo-pentyl)amino)-2-(1-methyl-1H-imidazol-2-yl)-6-(1-methyl-1H-pyrazol-3-yl)-N-(2-morpholino-ethyl)pyrrolo[2,1-f][1,2,4]triazine-5-carboxamide]: in the test on TNF-alpha, the inhibition at 10 µM fell in the range of 25 to 49%. Moreover, the “% inh of Akt phosphorylation in Panc-1” value in the test with Akt phosphorylation is given as “A (1-25% inhibition)”. Also, the “% inh of Erk1/2 phosphorylation in Panc-1” value in the test with Erk1/2 phosphorylation is reported as “B (26-49% inhibition)”.

As to `COc1ccnc(Nc2nc(-c3nccn3C)nn3cc(-c4ccn(C)n4)c(C(=O)N4CCOCC4)c23)c1` [Compound 179, (4-((4-Methoxypyridin-2-yl)amino)-2-(1-methyl-1H-imidazol-2-yl)-6-(1-methyl-1H-pyrazol-3-yl)pyrrolo[2,1-f][1,2,4]triazin-5-yl)(morpho-lino)methanone], the inhibition at 10 µM with TNF-alpha worked out at 0%. The “% inh of Akt phosphorylation in Panc-1” value with Akt phosphorylation is recorded as “D* (85-100% activation)”. Further, the “% inh of Erk1/2 phosphorylation in Panc-1” value with Erk1/2 phosphorylation was “D* (85-100% activation)”.

For `CO[C@H]1C[C@H](Nc2nc(-c3nccn3C)nn3cc(-c4ccc(CCN)cc4)c(-c4ccccc4)c23)C1.Cl` [Compound 207, 6-(4-(2-Aminoethyl)phenyl)-N-((1r,3r)-3-methoxycyclobutyl)-2-(1-methyl-1H-imidazol-2-yl)-5-phenylpyrrolo[2,1-f][1,2,4]triazin-4-amine hydrochloride salt], the inhibition at 10 µM in the test with TNF-alpha lay within 75 to 100%. In the test on Akt phosphorylation, the “% inh of Akt phosphorylation in Panc-1” value is listed as “C* (46-84% activation)”. Further, the “% inh of Erk1/2 phosphorylation in Panc-1” value in the test on Erk1/2 phosphorylation is on record as “D* (85-100% activation)”.

Take `COc1ccc(N(C)c2nc(-c3nccn3C)nn3cc(-c4ccn(C)n4)c(C)c23)nc1` [Compound 225, N-(5-Methoxypyridin-2-yl)-N,5-dimethyl-2-(1-methyl-1H-imidazol-2-yl)-6-(1-methyl-1H-pyrazol-3-yl)pyrrolo[2,1-f][1,2,4]triazin-4-amine]: the inhibition at 10 µM in the test with TNF-alpha amounted to 0%. For the same compound, the “% inh of Akt phosphorylation in Panc-1” value in the test with Akt phosphorylation is “A* (1-25% activation)”. Also, the “% inh of Erk1/2 phosphorylation in Panc-1” value in the test on Erk1/2 phosphorylation was “B (26-49% inhibition)”.

Turning to `CO[C@H]1CC[C@H](Nc2nc(-c3nccn3C)nn3cc(-c4cccnc4)c(-c4ccccc4)c23)C1` (racemic) [Compound 194, rac N-((1S,3S)-3-Methoxycyclopentyl)-2-(1-methyl-1H-imidazol-2-yl)-5-phenyl-6-(pyridin-3-yl)pyrrolo[2,1-f][1,2,4]triazin-4-amine], in the test on TNF-alpha, the inhibition at 10 µM was 50 to 74%. Moreover, the “% inh of Akt phosphorylation in Panc-1” value in the test on Akt phosphorylation is “D* (85-100% activation)”. The “% inh of Erk1/2 phosphorylation in Panc-1” value in the test with Erk1/2 phosphorylation was “D* (85-100% activation)”.

Turning to `CO[C@H]1C[C@H](Nc2nc(-c3nccn3C)nn3cc(-c4cccc(OCCN)c4)c(-c4ccccc4)c23)C1` [Compound 205, 6-(3-(2-Aminoethoxy)phenyl)-N-((1r,3r)-3-methoxycyclobutyl)-2-(1-methyl-1H-imidazol-2-yl)-5-phenylpyrrolo[2,1-f][1,2,4]triazin-4-amine], the “% inh of Akt phosphorylation in Panc-1” value in the test on Akt phosphorylation is “C* (46-84% activation)”. Besides, the “% inh of Erk1/2 phosphorylation in Panc-1” value with Erk1/2 phosphorylation is listed as “D* (85-100% activation)”.
